The data set is described as follows: TLC Rf as a measure of relative lipophilicity. The note with it: silica gel TLC Al foils. Format: physicochemical. On the procedure:
Measurement of the melting points (m.p.) of the obtained compounds was performed with the Büchi M560 melting point device (BÜCHI Labortechnik AG, CH-9230 Flawil/SG, Flawil, Switzerland) and was uncorrected. The ESI-MS (electrospray ionization mass spectroscopy) spectra were recorded with the compactTM Bruker Daltonics Electrospray Ionization Quadrupole Time-of-Flight (ESI-Q-TOF) spectrometer (Bruker Daltonics GmbH, Bremen, Germany). The ESI-MS measurements for new compounds were performed in both positive- and negative-ion mode in LC-MS-grade using LC-MS grade methanol as a solvent. ESI-MS spectral analysis and the simulation of the theoretical monoisotopic mass of detected ions were performed using Bruker Compass Data Analysis 4.2 software (Bruker Daltonics GmbH, Bremen, Germany). All ^1H and ^13C-NMR spectra were recorded on the following instruments: Bruker NMR AVANCE III™ 600 MHz spectrometer with Ascend™ technology magnet with a quadruple resonance NMR ‘inverse’ cryoprobe (Bruker Corporation, Billerica, MA, USA) and/or Bruker ARX-300 (300 MHz) spectrometer (Bruker Analytische Messtechnik GmbH, Rheinstetten, Germany). The NMR measurements of samples of the compounds were carried out at room temperature (20–25 °C) using 5 mm tubes in deuterated acetone-d6. NMR chemical shifts were referenced to the solvent signal, i.e., for ^1H-NMR: δ (quintet of residual acetone-d6) = 2.05 ppm and for ^13C-NMR: δ (septet of acetone-d6) = 29.84 ppm. The Nicolet iS50 FT-IR spectrophotometer (Thermo Fisher Scientific Inc., Waltham, MA, USA) was used to record the Attenuated Total Reflectance IR (ATR-FT-IR) spectra (at MIR range 4000–450 cm^−1). Recording of spectra was performed on the diamond crystal surface (32 scans, resolution: 1 cm^−1, measurement temperature: 20–25 °C) with ATR intensity correction in the Laboratory of Elemental Analysis and Structural Research, Faculty of Pharmacy, Wroclaw Medical University. A Fourier transform, Bruker VERTEX 70V vacuum spectrometer equipped with an air-cooled DTGS detector was used to obtain the Far-IR (far-infrared) spectra (below 500 cm^−1) of the Pt(II) complexes. The spectra measurements were conducted with the ATR accessory, such as a diamond ATR crystal, in the resolution of 1 cm^−1 with 64 scans in the Laboratory of Vibrational Spectroscopy of the Faculty of Chemistry at Wrocław University of Science and Technology. No ATR intensity correction was applied to Far-IR spectra. Omnic 9.3.30 and Omnic Specta 2.0 software (Thermo Fisher Scientific Inc.) was used to process and analyze spectra. A double beam U-2800 Spectrophotometer (Hitachi—Science & Technology, Tokyo, Japan) was used to record UV spectra of Pt-complexes (C1 and C2) and reaction rate measurements of the GSH complexes. Dioxane solutions of complexes were used in the following concentrations: c = 2 × 10^−5 M and 3 × 10^−5 M, respectively, for C1 and C2. Measurement of UV spectra was conducted in quartz cuvettes (path length = 10.0 mm) in the range 190–400 nm (sampling interval 1 nm, scan speed 200 nm/min). All UV experiments were performed in the Laboratory of Elemental Analysis and Structural Research, Faculty of Pharmacy, Wroclaw Medical University. Baselines were corrected with pure dioxane as the reference solvent. Thin-layer chromatography (TLC) was used to monitor the progress of the reaction course and determine the purity of the synthesized compounds. Silica gel on TLC Al foils with fluorescent indicator 254 nm (Sigma-Aldrich, Merck Group, Darmstadt, Germany) was used as the stationary phase and chloroform–acetone mixtures (volume ratios 9:1, 7:3, and 1:1) as the eluent. Detection of Pt(II) compounds in the chromatograms was performed using a 0.5% acetone solution of rubeanic acid (dithiooxamide), and organic impurities were detected by observing the plates under UV light at 250 nm. […]
Take `Cc1nscc1[N+](=O)[O-].Cc1nscc1[N+](=O)[O-].[Cl][Pt][Cl]` [C2, trans-Dichlorobis(3-methyl-4-nitroisothiazole)platinum(II)]: the “Rf, Eluent: Chlorofom:Acetone Ratio 1:1 Vol.” value came out at 0.833 and the “Rf, Eluent: Chlorofom:Acetone Ratio 9:1 Vol.” value is 0.355.
For `COC(=O)c1snc(C)c1[N+](=O)[O-].COC(=O)c1snc(C)c1[N+](=O)[O-].[Cl][Pt][Cl]` [C4, trans-Dichlorobis(3-methyl-4-nitro-5-(methoxycarbonyl)isothiazole)platinum(II)] the same measures were 0.863 and 0.828.
As for `COC(=O)c1snc(C)c1[N+](=O)[O-].Cc1nscc1[N+](=O)[O-].[Cl][Pt][Cl]` [C3, trans-Dichloro-3-methyl-4-nitroisothiazole 3-Methyl-4-nitro-5-(methoxycarbonyl)isothiazole Platinum(II)], the “Rf, Eluent: Chlorofom:Acetone Ratio 1:1 Vol.” value was 0.845 and the “Rf, Eluent: Chlorofom:Acetone Ratio 9:1 Vol.” value came to 0.645.
On the same counts, the results for “Dichlorobis(3-methyl-4-nitroisothiazole)platinum(II) [C1]” are 0.726 and 0.054.

The values above are taken from publication PMC12786457, “Studies on the Complexation of Platinum(II) by Some 4-Nitroisothiazoles and the Cytotoxic Activity of the Resulting Complexes” (Molecules, 2025).
